Values quoted from earlier work, collected in patent publication US7402323B2, “Compositions and methods for treating skin conditions” (AkPharma, Inc., priority 2002, dated 2008).

Columns and labels:
stratum corneum = details: normal thickness 14 cells
[1] = test system: cultured neurons and astrocytes; details: compared with control cultures or with cultures supplemented with calcium or glycerophosphate alone

stratum corneum thickness after treatment (stratum corneum) | solubility in water | Structure (SMILES) | number of cells in supplemented cultures [1]
5 cells | – | CC1=C(/C=C/C(C)=C/C=C/C(C)=C/C(=O)O)C(C)(C)CCC1 [Retinoic acid] | –
– | highly soluble | O=P([O-])([O-])OCC(O)CO.[Ca+2] (stereo not drawn) [calcium glycerophosphate, 1,2,3-propanetriol, mono(dihydrogen phosphate) calcium salt (1:1)] | more cells
